Values quoted from earlier work as cited in patent US11602509B2, “Salt of cysteamine for the preparation of highly respirable particles” (RECORDATI INDUSTRIA CHIMICA E FARMACEUTICA SPA, priority 2018, dated 2023).

NCCS [cysteamine free base, cysteamine]
pKa: 9.42
